Measured values from ChEMBL document CHEMBL5338790, “Discovery of Subcellular-Targeted Aza-BODIPY Photosensitizers for Efficient Photodynamic Antitumor Therapy” (J Med Chem, 2023).
The source made the active and inactive calls. No cut-off for these calls is given here.

How the values were obtained:
[1] = Cytotoxicity against human HeLa cells assessed as inhibition of cell viability under dark condition incubated for 27 hrs by CCK8 assay; format: toxicity, cell-based
HeLa [2] = assay: Photodynamic cytotoxicity against human HeLa cells assessed as inhibition of cell viability incubated for 3 hrs followed by photo-irradiation at 54 J/cm2 measured after 24 hrs by CCK8 assay; format: functional, cell-based; conditions: light or radiation study
[3] = Cytotoxicity against human HepG2 cells assessed as inhibition of cell viability under dark condition incubated for 27 hrs by CCK8 assay; format: toxicity, cell-based
HepG2 = assay: Photodynamic cytotoxicity against human HepG2 cells assessed as inhibition of cell viability incubated for 3 hrs followed by photo-irradiation at 54 J/cm2 measured after 24 hrs by CCK8 assay; format: functional, cell-based; conditions: HepG2, light or radiation study
[4] = Cytotoxicity against mouse B16-F10 cells assessed as inhibition of cell viability under dark condition incubated for 27 hrs by CCK8 assay; format: toxicity, cell-based
B16-F10 = assay: Photodynamic cytotoxicity against mouse B16-F10 cells assessed as inhibition of cell viability incubated for 3 hrs followed by photo-irradiation at 54 J/cm2 measured after 24 hrs by CCK8 assay; format: functional, cell-based; conditions: B16-F10, light or radiation study
[5] = Cytotoxicity against HUVEC cells assessed as inhibition of cell viability under dark condition incubated for 27 hrs by CCK8 assay; format: toxicity, cell-based; conditions: human
HUVEC = assay: Photodynamic cytotoxicity against HUVEC cells assessed as inhibition of cell viability incubated for 3 hrs followed by photo-irradiation at 54 J/cm2 measured after 24 hrs by CCK8 assay; format: functional, cell-based; conditions: Homo sapiens, light or radiation study
[6] = Drug uptake in human HeLa cells at 5 uM by confocal scanning microscopy; format: ADME, cell-based; conditions: 3 h, TDE = time-dependent effect
[7] = Drug uptake in human HeLa cells at 5 uM incubated for 3 hrs by confocal scanning microscopy; format: ADME, cell-based
[8] = Drug localization in mitochondria of human HeLa cells at 5 uM incubated for 30 mins by MitoTracker Green FM dye based confocal scanning microscopic analysis; format: ADME; conditions: 0.5 h
[9] = Drug localization in endoplasmic reticulum of human HeLa cells at 5 uM incubated for 30 mins by ER-Tracker Green dye based confocal scanning microscopic analysis; format: ADME; conditions: 0.5 h
[10] = Drug localization in lysosome of human HeLa cells at 5 uM incubated for 30 mins by Lyso-tracker Green DND-26 dye based confocal scanning microscopic analysis; format: ADME, subcellular; conditions: 0.5 h
HeLa [11] = assay: Induction of ROS production in human HeLa cells preincubated for 2 hrs followed by H2DCFDA probe exposure for 30 mins and subsequent removal of probe with photo-irradiation at 16 J/cm2 by confocal scanning microscopic analysis; format: functional, cell-based; conditions: dose <= 200.0 nM, time 2.5 hrs
HeLa [12] = assay: Induction of ROS production in human HeLa cells upto 200 nM preincubated for 2 hrs followed by H2DCFDA probe exposure for 30 mins and subsequent removal of probe with photo-irradiation at 16 J/cm2 by confocal scanning microscopic analysis; format: functional, cell-based; conditions: time 2.5 hrs
HeLa [13] = assay: Induction of ROS production in human HeLa cells upto 200 nM preincubated for 2 hrs followed by H2DCFDA probe exposure for 30 mins and subsequent removal of probe by confocal scanning microscopic analysis; format: functional, cell-based; conditions: time 2.5 hrs
[14] = Toxicity in Balb/C nu/nu mouse xenografted with human HeLa cells assessed as change in heart histology at 2.5 umol/kg, iv with photo-irradiation at 30 J/cm2 after 1 hr of compound administration measured after 24 days by H and E staining based analysis; format: organism-based; conditions: in vivo, 576 h, dose 2.5 µmol/kg, time 24 day
HeLa [15] = assay: Antitumor activity against human HeLa cells xenografted in Balb/C nu/nu mouse assessed as tumor growth inhibition at 2.5 umol/kg, iv with photo-irradiation at 30 J/cm2 after 1 hr of compound administration measured for 24 days; format: functional, organism-based; conditions: dose 2.5 µmol/kg, time 24.0 day
[16] = Toxicity in Balb/C nu/nu mouse xenografted with human HeLa cells assessed as drug tolerance at 2.5 umol/kg, iv with photo-irradiation at 30 J/cm2 after 1 hr of compound administration measured for 24 days; format: organism-based; conditions: in vivo, 576 h, dose 2.5 µmol/kg, time 24 day
[17] = Toxicity in Balb/C nu/nu mouse xenografted with human HeLa cells assessed as increase in body weight at 2.5 umol/kg, iv with photo-irradiation at 30 J/cm2 after 1 hr of compound administration measured for 24 days; format: organism-based; conditions: in vivo, 576 h, dose 2.5 µmol/kg, time 24 day
[18] = Toxicity in Balb/C nu/nu mouse xenografted with human HeLa cells assessed as change in liver histology at 2.5 umol/kg, iv with photo-irradiation at 30 J/cm2 after 1 hr of compound administration measured after 24 days by H and E staining based analysis; format: organism-based; conditions: in vivo, 576 h, dose 2.5 µmol/kg, time 24 day
[19] = Toxicity in Balb/C nu/nu mouse xenografted with human HeLa cells assessed as change in spleen histology at 2.5 umol/kg, iv with photo-irradiation at 30 J/cm2 after 1 hr of compound administration measured after 24 days by H and E staining based analysis; format: organism-based; conditions: in vivo, 576 h, dose 2.5 µmol/kg, time 24 day
[20] = Toxicity in Balb/C nu/nu mouse xenografted with human HeLa cells assessed as change in lung histology at 2.5 umol/kg, iv with photo-irradiation at 30 J/cm2 after 1 hr of compound administration measured after 24 days by H and E staining based analysis; format: organism-based; conditions: in vivo, 576 h, dose 2.5 µmol/kg, time 24 day
[21] = Toxicity in Balb/C nu/nu mouse xenografted with human HeLa cells assessed as change in kidney histology at 2.5 umol/kg, iv with photo-irradiation at 30 J/cm2 after 1 hr of compound administration measured after 24 days by H and E staining based analysis; format: organism-based; conditions: in vivo, 576 h, dose 2.5 µmol/kg, time 24 day
HeLa [22] = assay: Antitumor activity against human HeLa cells xenografted in Balb/C nu/nu mouse assessed as tumor growth inhibition at 2.5 umol/kg, iv with photo-irradiation at 30 J/cm2 after 1 hr of compound administration measured for 6 days; format: functional, organism-based; conditions: dose 2.5 µmol/kg, time 6.0 day
HeLa [23] = assay: Antitumor activity against human HeLa cells xenografted in Balb/C nu/nu mouse assessed as reduction in tumor histology at 2.5 umol/kg, iv with photo-irradiation at 30 J/cm2 after 1 hr of compound administration measured after 24 days by H and E staining based analysis; format: functional, organism-based; conditions: dose 2.5 µmol/kg, time 24.0 day

Compound	Drug uptake [6]	IC50 at 27 h [1] [µM]	IC50 (HeLa [2]) [µM]	IC50 at 27 h [3] [µM]	IC50 (HepG2) [µM]	IC50 at 27 h [4] [µM]	IC50 (B16-F10) [µM]	IC50 at 27 h [5] [µM]	IC50 (HUVEC) [µM]	other results
Br.COc1ccc2c(c1)CCc1c(-c3ccccc3)c3n(c1-2)[B-](F)(F)[N+]1=C(c2ccc(OCc4cn(CCC[P+](c5ccccc5)(c5ccccc5)c5ccccc5)nn4)cc2)C(I)=C(c2ccccc2)C1=N3	Tde	10.6	0.002	11.4	0.0143	12.8	0.021	12.5	0.0137	–
Br.COc1ccc2c(c1)CCc1c(-c3ccccc3)c3n(c1-2)[B-](F)(F)[N+]1=C(c2ccc(OCC(=O)NCCC[P+](c4ccccc4)(c4ccccc4)c4ccccc4)cc2)C(I)=C(c2ccccc2)C1=N3	Tde	21.3	0.0055	25.8	0.0143	44.4	0.0337	20.1	0.0122	Drug uptake [7]: Active; Drug uptake [8]: Active; Drug uptake [9]: Not Active; Drug uptake [10]: Not Active; Activity (HeLa [11]): Dose-Dependent Effect; Activity (HeLa [12]): Active; Activity (HeLa [13]): inactive
C=Cc1c(C)c2cc3nc(c(CC(=O)O)c4[nH]c(cc5nc(cc1[nH]2)C(C)=C5CC)c(C)c4C(=O)O)[C@@H](CCC(=O)O)[C@@H]3C [CHLORIN E6]	–	> 50	0.955	> 50	0.599	> 50	2.31	> 50	0.799	Activity [14]: Non-Toxic; Activity (HeLa [15]): inactive; Activity [16]: Non-Toxic; Activity [17]: Non-Toxic; Activity [18]: Non-Toxic; Activity [19]: Non-Toxic; Activity [20]: Non-Toxic; Activity [21]: Non-Toxic
COc1ccc2c(c1)CCc1c(-c3ccccc3)c3n(c1-2)[B-](F)(F)[N+]1=C(c2ccc(OCc4cn(CCCN5CCOCC5)nn4)cc2)C(I)=C(c2ccccc2)C1=N3	Tde	25.4	0.0048	> 50	0.0091	> 50	0.0104	> 50	0.0113	–

Now from value to compound, other results behind:

Drug uptake [6]	Compound	IC50 at 27 h [1] [µM]	IC50 (HeLa [2]) [µM]	IC50 at 27 h [3] [µM]	IC50 (HepG2) [µM]	IC50 at 27 h [4] [µM]	IC50 (B16-F10) [µM]	IC50 at 27 h [5] [µM]	IC50 (HUVEC) [µM]	other results
Tde	COc1ccc2c(c1)CCc1c(-c3ccccc3)c3n(c1-2)[B-](F)(F)[N+]1=C(c2ccc(OCc4cn(CCCNC(=O)c5c(F)c(F)c(F)c(F)c5F)nn4)cc2)C(I)=C(c2ccccc2)C1=N3	> 50	0.092	> 50	0.179	> 50	0.413	> 50	0.219	–
Tde	COc1ccc2c(c1)CCc1c(-c3ccccc3)c3n(c1-2)[B-](F)(F)[N+]1=C(c2ccc(OCC(=O)NCCCNC(=O)c4c(F)c(F)c(F)c(F)c4F)cc2)C(I)=C(c2ccccc2)C1=N3	> 50	0.0382	> 50	0.0412	> 50	0.0748	> 50	0.0558	–
Tde	COc1ccc(C2=[N+]3C(=Nc4c(-c5ccccc5)c5c(n4[B-]3(F)F)-c3ccc(OC)cc3CC5)C(c3ccccc3)=C2I)cc1	> 50	0.0628	> 50	0.0856	> 50	0.317	> 50	0.0888	Activity [14]: Non-Toxic; Activity (HeLa [11]): Dose-Dependent Effect; Activity (HeLa [13]): inactive; Activity (HeLa [22]): Active; Activity [16]: Non-Toxic; Activity [17]: Non-Toxic; Activity [18]: Non-Toxic; Activity [19]: Non-Toxic; Activity [20]: Non-Toxic; Activity [21]: Non-Toxic; Activity (HeLa [23]): Active
